The values below come from PubChem BioAssay (NCI).

Among the test systems are CCRF-CEM leukemia; DU-145 prostate; OVCAR-4 ovarian; PC-3 prostate; UO-31 renal; K-562 leukemia; BT-549 breast; MDA-MB-231 breast; SF-539 CNS; A498 renal.
Common to all, as to test: NCI anticancer screen, dose series, 48 h

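Briefly, cells in 96-well plates were exposed to five compound concentrations for 48 h, and endpoints were estimated by linear interpolation. GI50 = concentration required for 50% inhibition of growth. TGI is the concentration that stops growth completely.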 Some results are limits rather than exact numbers.

`O=C(c1ccccc1Nc1ccnc(C(F)(F)F)c1)N1CCN(c2cccc(Cl)c2)CC1`: the GI50 in the assay on CCRF-CEM leukemia was 11.2 µM; with DU-145 prostate it was 28.1 µM; in the assay on OVCAR-4 ovarian, 12.7 µM; in the assay on PC-3 prostate it was 9.45 µM; in the assay with UO-31 renal, 13.7 µM; with K-562 leukemia, 19.2 µM. The GI50 in the assay with BT-549 breast is 15.9 µM; in the assay with MDA-MB-231 breast, 16.1 µM; in the assay with SF-539 CNS, 17.8 µM; in the assay with A498 renal it was 12.7 µM. The TGI with CCRF-CEM leukemia is greater than 84.5 µM; in the assay on DU-145 prostate, greater than 100 µM; with OVCAR-4 ovarian it was greater than 100 µM; with PC-3 prostate it was 53 µM; in the assay on UO-31 renal, 68.1 µM; in the assay on K-562 leukemia, greater than 100 µM. For the same compound, the TGI in the assay with BT-549 breast stood at 37.3 µM; in the assay with MDA-MB-231 breast, 56 µM; with SF-539 CNS, 41.1 µM; in the assay on A498 renal it was 46.3 µM.

On to `O=C(Nn1c(-c2ccccc2)nc2ccccc2c1=O)c1ccccn1`, for which the TGI in the assay with CCRF-CEM leukemia, with DU-145 prostate, in the assay with OVCAR-4 ovarian, in the assay with PC-3 prostate, in the assay with UO-31 renal and in the assay with K-562 leukemia was greater than 100 µM in each case. Also, the TGI in the assay with BT-549 breast, in the assay on MDA-MB-231 breast, in the assay on SF-539 CNS and in the assay on A498 renal was greater than 100 µM throughout.

As for `S=c1nc(-c2nc(=S)[nH]c3c2CCCCCCCCCC3)c2c([nH]1)CCCCCCCCCC2`, the TGI in the assay on DU-145 prostate, in the assay with OVCAR-4 ovarian, in the assay with PC-3 prostate, with UO-31 renal, with K-562 leukemia and in the assay on BT-549 breast was greater than 100 µM each time. Besides, the TGI in the assay on MDA-MB-231 breast, in the assay with SF-539 CNS and in the assay with A498 renal was greater than 100 µM throughout.

Turning to `Cl.[Pt].[c-]1ccccc1-c1ccccn1.c1ccc(P(c2ccccc2)C([PH+](c2ccccc2)c2ccccc2)[PH+](c2ccccc2)c2ccccc2)cc1`, the GI50 is 2.4 µM in the assay with CCRF-CEM leukemia; 1.9 µM in the assay on DU-145 prostate; 0.662 µM in the assay with OVCAR-4 ovarian; 0.683 µM with PC-3 prostate; 1.8 µM with UO-31 renal; 0.658 µM with K-562 leukemia. Moreover, the GI50 was 2.09 µM in the assay on BT-549 breast, 1.93 µM in the assay with MDA-MB-231 breast, 1.54 µM in the assay with SF-539 CNS and 1.85 µM with A498 renal. Moreover, the TGI in the assay on CCRF-CEM leukemia was greater than 100 µM; in the assay with DU-145 prostate, 16.4 µM; in the assay with OVCAR-4 ovarian it was 8.63 µM; with PC-3 prostate, 15.3 µM; in the assay with UO-31 renal, 6.28 µM; in the assay on K-562 leukemia it was 13.6 µM. The TGI is 6.82 µM in the assay on BT-549 breast, 5.24 µM in the assay on MDA-MB-231 breast, 5.6 µM in the assay on SF-539 CNS and 5.89 µM in the assay on A498 renal.

Consider `COc1ccc(C(=O)c2cc(OC)c(OC)c(OC)c2)cc1OC(C)=O`, for which the GI50 was 0.0353 µM in the assay with CCRF-CEM leukemia; 0.0324 µM with DU-145 prostate; 0.0822 µM in the assay on OVCAR-4 ovarian; 0.0208 µM with PC-3 prostate; 0.195 µM in the assay with UO-31 renal; less than 0.01 µM in the assay with K-562 leukemia. Further, the GI50 in the assay with BT-549 breast is less than 0.0199 µM; in the assay on MDA-MB-231 breast it was 0.0369 µM; in the assay with SF-539 CNS it was less than 0.01 µM; in the assay on A498 renal, 1.61 µM. Moreover, the TGI in the assay with CCRF-CEM leukemia, in the assay on DU-145 prostate, with OVCAR-4 ovarian, in the assay with PC-3 prostate, in the assay on UO-31 renal and in the assay on K-562 leukemia was greater than 100 µM throughout. Further, the TGI with BT-549 breast was greater than 67.5 µM; in the assay with MDA-MB-231 breast it was greater than 100 µM; in the assay with SF-539 CNS, 0.0376 µM; with A498 renal, 6.43 µM.

As to `C#CCN1C(=O)/C(=c2\sc3n(c2=O)C2C(NN=3)N(CC)C(=O)N2CC)c2ccccc21` (stereo not given), the GI50 in the assay on CCRF-CEM leukemia is 0.381 µM; in the assay on DU-145 prostate, 1.04 µM; with OVCAR-4 ovarian, greater than 27.3 µM; in the assay on PC-3 prostate it was 0.463 µM; in the assay with UO-31 renal, 0.673 µM; in the assay on K-562 leukemia it was 0.342 µM. Further, the GI50 in the assay on BT-549 breast is 0.568 µM; in the assay on MDA-MB-231 breast it was 2.07 µM; in the assay on SF-539 CNS, 0.295 µM; in the assay on A498 renal it was 0.186 µM. Besides, the TGI is greater than 100 µM with CCRF-CEM leukemia; greater than 38.6 µM in the assay with DU-145 prostate; greater than 100 µM in the assay with OVCAR-4 ovarian; greater than 100 µM with PC-3 prostate; greater than 100 µM in the assay with UO-31 renal; greater than 100 µM in the assay on K-562 leukemia. In addition, the TGI was determined as 12.4 µM with BT-549 breast, 40 µM with MDA-MB-231 breast, 1.4 µM in the assay on SF-539 CNS and 0.728 µM in the assay with A498 renal.

Regarding `COc1ccc(SC2c3cc(OC)c(OC)cc3Oc3nc(N)c(C#N)c(N)c32)cc1` (stereo not given), the GI50 in the assay on DU-145 prostate was 1.73 µM; in the assay with OVCAR-4 ovarian, 1.33 µM; with PC-3 prostate it was 1.16 µM; in the assay with UO-31 renal, 1.34 µM; with BT-549 breast, 1.02 µM; with MDA-MB-231 breast it was 1.43 µM. The GI50 was 1.38 µM with SF-539 CNS and 1.42 µM in the assay with A498 renal. The TGI in the assay with DU-145 prostate stood at 3.11 µM; in the assay with OVCAR-4 ovarian, 2.73 µM; in the assay with PC-3 prostate, 2.49 µM; in the assay with UO-31 renal, 2.61 µM; in the assay with BT-549 breast it was 2.19 µM; in the assay with MDA-MB-231 breast, 2.81 µM. Also, the TGI in the assay on SF-539 CNS is 2.68 µM; in the assay with A498 renal, 2.85 µM.

On to `COc1ccc(-c2oc(=O)ccc2C#Cc2cc(OC)c(OC)c(OC)c2)cc1O`, for which the GI50 in the assay on CCRF-CEM leukemia is 2.79 µM; in the assay on DU-145 prostate, 38.6 µM; in the assay with OVCAR-4 ovarian, 67 µM; in the assay on PC-3 prostate it was 23.3 µM; in the assay with UO-31 renal, 30.9 µM; in the assay on K-562 leukemia, 13.8 µM. For the same compound, the GI50 in the assay on BT-549 breast was 27 µM; with MDA-MB-231 breast it was 11.6 µM; in the assay on SF-539 CNS, 20 µM; with A498 renal, 30 µM. The TGI in the assay on CCRF-CEM leukemia, with DU-145 prostate, with OVCAR-4 ovarian, with PC-3 prostate, with UO-31 renal and in the assay on K-562 leukemia was greater than 100 µM in each case. For the same compound, the TGI with BT-549 breast was greater than 100 µM; in the assay with MDA-MB-231 breast it was greater than 100 µM; in the assay on SF-539 CNS, 86.2 µM; in the assay on A498 renal it was 76.8 µM.
